Values of other authors as cited in patent US5763196A, “Assays using cross-linked polypeptide fragments of β-galactosidase” (priority 1996, dated 1998).

Test system: interleukin-1-β converting enzyme (ICE protease)

SMILES	minimal and best peptide substrate found to date (Thornberry, Nature 356:768-74 (1992))	inhibition of ICE protease (in words) (Nature 375:78-81 (1995))
CNC(=O)[C@H](CC(=O)O)NC(=O)[C@H](C)NC(=O)[C@@H](NC(=O)[C@H](Cc1ccc(O)cc1)NC(C)=O)C(C)C [Ac-Tyr-Val-Ala-Asp-NH-CH3]	minimal and best peptide substrate	–
CC(=O)N[C@@H](Cc1ccc(O)cc1)C(=O)N[C@H](C(=O)N[C@@H](C)C(=O)N[C@@H](CC(=O)O)C(=O)CCl)C(C)C [Ac-Tyr-Val-Ala-Asp-*]	–	potent inhibitor
